Data on one molecule can be found in paper PMC8545353 (ACS chemical biology, 2021).

≈ marks a conversion by molar mass, not a printed value. Non-standard residues stand in square brackets, D forms with d. Residues, ends and D or L forms follow the SMILES beside them. NMeY = CN[C@@H](Cc1ccc(O)cc1)C(=O)O; dNMeF = CN[C@H](Cc1ccccc1)C(=O)O; Sar = CNCC(=O)O

The nature of the data set: physchem. Conditions: aqueous.

One may read the solubility as the concentration that dissolves in the medium under given conditions. Low values mean a poorly soluble substance, high ones a readily soluble substance. Molecule `CC[C@H](C)[C@@H]1NC(=O)[C@H](Cc2ccc(O)cc2)N(C)C(=O)[C@H](Cc2ccccc2)NC(=O)CN(C)C(=O)[C@@H]2CCCN2C(=O)[C@@H](Cc2ccccc2)N(C)C(=O)[C@H](CC(C)C)NC1=O` [Compound 1, cordyheptapeptide A] (cyclo(F[NMeY]IL[dNMeF]P[Sar])) registered a solubility of 3.9 µM (≈ 3.43 µg/mL).
